Source: PMC11984586, “A novel spider toxin as a selective antagonist of the Kv1 subfamily of voltage-gated potassium channels through gating modulation” (The Journal of Biological Chemistry, 2025)
Bridge positions count the residues as written; N and C are the ends. Peptide text beside a SMILES is read from it.

Experiments:
[1] = test system: Kv1.3/Kv1.4 S3-S4 chimeric channel; assay: Whole-cell patch clamp, chimeric channel; assay type: cell-based, human/rat; conditions: +30 mV, mean ± SD, n = 5-6
Description: To investigate the structural determinants underlying the differential regulatory effects of MrVIII on Kv1 channels, we employed a chimeric channel strategy. Using Kv1.3 as the template, the S1-S2, S3-S4, and S5-S6 transmembrane helices and their respective linkers from Kv1.1 were inserted to generate chimeras, generating the Kv1.3/1.1 S1-S2, Kv1.3/1.1 S3-S4, and Kv1.3/1.1 S5-S6 chimeric channels. […] These findings indicate that the S3-S4 is the key determinant for the differential inhibition of Kv1.1 and Kv1.3 by MrVIII. To further validate this conclusion, we constructed a reverse chimeric channel using Kv1.1 as the template, inserting the corresponding regions from Kv1.3 into Kv1.1. […] This finding more directly illustrates the exchange of the channel's voltage-dependence phenotype in toxin inhibition by swapping this S3-S4 between Kv1.1 and Kv1.3. […] In addition to confirming the differential role of S3-S4 between Kv1.1 and Kv1.3, we also substituted the S3-S4 of Kv1.4 and Kv1.7 into Kv1.3 to analyze MrVIII's inhibition profile. […]
(§1) CHO-K1 cells were selected for expressing Kv channels due to their lack of endogenous Kv channels, while HEK293 or ND7/23 cells were used for Nav and Cav channel expression. […] After 4 to 6 h transfection, cells were seeded onto poly-lysine–coated coverslips, and 24 to 36 h later, transfected cells were ready for patch-clamp analysis. […]

Kv1.7/Y253A = assay: Whole-cell patch clamp, Tyr-to-Ala mutant homologous to Kv1.3 Y339; assay type: cell-based, human; conditions: 10 μM MrVIII, +30 mV, 500 ms, holding −80 mV, mean ± SD, n = 4–6
Description: (§2) Building on the identification of key amino acid residues in Kv1.3 channel that interact with MrVIII through alanine-scanning mutagenesis, we extended our analysis to explore these residues across other Kv1 subfamily channels. […] However, MrVIII retained substantial inhibitory potency on Kv1.2/Y266A mutant, albeit without fully blocking the channel current. […] The profound reduction in MrVIII's effect across homologous mutants supports the idea that it binds to a conserved region.
(§3) The cDNA of hKv1.1, hKv1.2, hKv1.3, rKv1.4, hKv1.5, mKv1.6, and hKv1.7 were subcloned into mammalian expression vectors pcDNA3.1 or pCMV-blank vectors, as well as other plasmids described previously ([35]). Channel mutants were generated by site-directed mutations. Briefly, the parental channel plasmid was amplified using a pair of oppositely directed primers harboring the designed mutation site, with KOD Fx (TOYOBO Co, Ltd). The resulting PCR mix was treated with FastDigest DpnI (Thermo Fisher Scientific) to remove the methylated template. Ten microliters of the digested product was then used to transform 100 μl E. coli DH5α competent cells. […]
as §1
(§4) For Kv current recordings, the bath solution contained (in mM) the following: 140 NaCl, 5 KCl, 1 MgCl2, 2 CaCl2, 10 glucose, and 10 Hepes (pH 7.3, adjusted with NaOH), and the pipette solution contained (in mM) the following: 140 KCl, 2.5 MgCl2, 11 EGTA, and 10 Hepes (pH 7.3, adjusted with KOH). […] Whole cell conductance (G) at each depolarizing voltage (V) was determined using the equation: G = I/(V−Vrev), where I is the current amplitude, and Vrev is the reversal potential. […] The steady-state fast inactivation of Kv1.3 was measured using a two-pulses protocol. […]

Kv1.1/Y256A = assay: as above; assay type: cell-based, human; conditions: 10 μM MrVIII, +30 mV, 500 ms, holding −80 mV, mean ± SD, n = 4–6
Description: as §2, §3, §1, §4

Kv1.5/Y368A = assay: as above; assay type: cell-based, human; conditions: 10 μM MrVIII, +30 mV, 500 ms, holding −80 mV, mean ± SD, n = 4–6
Description: as §2, §3, §1, §4

CC[C@H](C)[C@@H]1NC(=O)[C@H](Cc2ccc(O)cc2)NC(=O)[C@H](CCC(N)=O)NC(=O)[C@@H]2CCCN2C(=O)[C@@H]2CSSC[C@H](NC(=O)[C@H](C)NC(=O)[C@H](CO)NC(=O)[C@H](CCC(=O)O)NC(=O)[C@H](CCC(=O)O)NC(=O)[C@@H](N)[C@@H](C)O)C(=O)NCC(=O)NCC(=O)N[C@@H](Cc3ccccc3)C(=O)N[C@@H](CC(N)=O)C(=O)N[C@@H](C)C(=O)N[C@@H](CCCNC(=N)N)C(=O)N[C@H]3CSSC[C@H](NC1=O)C(=O)N[C@@H](CCCCN)C(=O)NCC(=O)N[C@@H](Cc1c[nH]c4ccccc14)C(=O)N[C@@H](CCCNC(=N)N)C(=O)N[C@@H]([C@@H](C)O)C(=O)N[C@@H](CCCCN)C(=O)N[C@@H](CCCNC(=N)N)C(=O)N[C@H](C(=O)N[C@@H](CC(C)C)C(=O)N[C@@H](CC(N)=O)C(=O)N1CCC[C@H]1C(=O)O)CSSC[C@H](NC(=O)[C@H](CCCCN)NC(=O)[C@H](Cc1c[nH]cn1)NC(=O)[C@H](CC(C)C)NC(=O)[C@@H]1CCCN1C3=O)C(=O)N2 [MrVIII] (H-TEESACGGFNARCPLHKCCPQYICKGWRTKRCLNP-OH; disulfide 6-19, 13-24, 18-32; N-terminus and C-terminus assumed)
IC50 ([1]; current at 50 ms): 117 ± 48.2 nM
inhi%(495 ms), Kv1.3/Kv1.4 S3-S4 current ([1]; current at 495 ms): 37.9 ± 5.4%
inhibition of Kv1.7/Y253A current (Kv1.7/Y253A): −9.4 ± 13.6%
inhibition of Kv1.1/Y256A current (Kv1.1/Y256A): −9.5 ± 4.4%
inhibition of Kv1.5/Y368A current (Kv1.5/Y368A): 19.1 ± 6.2%
